PMC4382154, “Screening of the Pan-African Natural Product Library Identifies Ixoratannin A-2 and Boldine as Novel HIV-1 Inhibitors” (PLoS ONE, 2015)
Like-named read-outs stand apart in the source and are kept apart here.

How the values were obtained:
Assay type in all cases: cell-based
[1] = Cell toxicity in HIV-1 infected CEM-GXR cultures (forward/side scatter); conditions: human, HIV-1NL4-3-infected CEM-GXR cells (CD4+ T-lymphocyte line), Day 4
Method: (§1) CEM-GXR cells are an immortalized CD4+ T-lymphocyte line engineered that naturally express the HIV-1 coreceptor CXCR4 and have been further engineered to express the HIV-1 co-receptor CCR5 and a Tat-driven LTR-GFP expression cassette. As such, intracellular GFP expression indicates HIV-1 infection. Cultures of 10^5 CEM-GXR cells were seeded into 96-well plates with RPMI-1640 media (Sigma) supplemented with penicillin/streptomycin plus 20% fetal calf serum (R20+), infected with HIV-1 at a multiplicity of infection of 0.03 (to achieve 3% infected cells on Day 2), and incubated at 37°C and 5% CO2. 24 hours later, cells were pelleted at 750 g and resuspended in R20+ containing compound or 0.1% DMSO. […] Cells were then incubated at 37°C and 5% CO2 for an additional 72 h. 5,000 cells from each culture were measured for cell toxicity and GFP expression by flow cytometry. Flow cytometry data were analyzed using FlowJo v. 8.8.7 software (FlowJo LLC, Ashland, OR). […] Background GFP expression in uninfected cultures was set at 0.05% GFP-positive cells. For each experiment, all data points were obtained in triplicate. All data are reported as the mean ± s.e.m. from at least 3 independent experiments performed with different virus stocks and/or performed on different days. However, all experiments that compare HIV-1NL4-3 and mutant HIV-1 were performed in parallel. EC50 and CC50 values for each compound were calculated from at least four concentrations. Statistical analyses were performed using Student’s unpaired t test, with a p value < 0.05 plus a Bonferroni correction to adjust for multiple comparisons considered significant.
To assess the effects of these eight compounds on cell viability and HIV-1 replication, we infected a GFP-reporter CEM CD4+ T cell line (CEM-GXR) with the NL4-3 strain of HIV-1 (HIV-1NL4-3). Briefly, cells were infected with HIV-1NL4-3 at a multiplicity of infection of 0.03 (Day 0), followed by removal of HIV-1 and addition of compound (or 0.1% DMSO vehicle control) 24 hours later (Day 1) and incubation for an additional 72 hours to allow HIV-1 spread (Days 2–4). On Days 2 and/or 4, the percent HIV-1 infected (i.e., GFP-expressing) cells was measured by flow cytometry. Cell viability was assessed by measuring the percentage of cells displaying normal forward- and side-scatter parameters in drug-treated, HIV-1 infected cultures compared to 0.1% DMSO-treated, HIV-1 infected control cultures. […] HIV-1NL4-3 replication was unaffected by the presence of 0.1% DMSO vehicle control (Fig. 2B).

[2] = PBMC cytotoxicity (ViaCount Assay); conditions: human, all assessed concentrations, read-out: PBMC viability relative to PBMCs in 0.1% DMSO
Method: Cytotoxicity was determined by ViaCount Assay (Millipore). Briefly, Day 3 PHA-activated PBMCs (3*10^5) were cultured in R10+ supplemented with 100 units/mL human IL-2 in the presence of 0.1% DMSO or compounds at defined concentrations. At Day 5, 15 μL of each PBMC culture was mixed with Guava ViaCount Reagent at a 1:10 dilution. Data were collected using a Guava EasyCyte HT Flow Cytometer (Millipore).

HIV-1Δvpu = HIV-1Δvpu replication in CEM-GXR cells; conditions: for fold less effective at inhibiting HIV-1Δvpu compared to HIV-1NL4-3: 75 μM, CEM-GXR cells; for EC50: Human immunodeficiency virus 1, CEM-GXR, 96 h, read-out: EC50 HIV-1Δvpu
Method: HIV-1Δvpu was constructed by digesting plasmid p210-13 3’ Δ-vpu with EcoRI and NheI enzymes. The resulting DNA fragment was then ligated into wild-type pNL4-3 plasmid digested with the same enzymes. HIV-1Δvpu and HIV-1NL4-3 viral stocks were prepared by transfection of HEK-293T cells, as previously described. Patient plasma-HIV-1 RNA sequences were analyzed for resistance mutations using the HIV Drug Resistance Database Genotype Resistance Interpretation Algorithm (hivdb.stanford.edu). Recombinant HIV-1NL4-3 expressing patient-derived HIV-1 sequences harboring resistance mutations to protease and reverse transcriptase inhibitors (HIV-1PR+RT), reverse transcriptase inhibitors (HIV-1RT), and integrase inhibitors (HIV-1INT) were generated by homologous recombination following co-transfection as reported.
as §1
To investigate the mechanisms by which ixoratannin A-2 and boldine may block HIV-1 replication, we used a previously-reported HIV-1NL4-3 strain lacking the Vpu coding region (HIV-1Δvpu). We also constructed recombinant HIV-1NL4-3 strains harboring protease, reverse transcriptase, and/or integrase sequences of HIV-1 strains from patients who had developed resistance to the protease inhibitor Indinavir (IND), the non-nucleoside reverse transcriptase inhibitor Efavirenz (EFV), and/or the integrase inhibitor Raltegravir (RAL) (denoted HIV-1PR+RT, HIV-1RT, and HIV-1INT, respectively). Re-sequencing of the recombinant viruses confirmed the presence of multiple mutations known to confer resistance to IND, EFV, and/or RAL (Table 2).

HIV-1RT = test: microbe, parasite or virus in culture; conditions: for EC50: Human immunodeficiency virus 1, CEM-GXR, 96 h, read-out: EC50 HIV-1RT
Method: CEM-GXR cells are an immortalized CD4+ T-lymphocyte line engineered that naturally express the HIV-1 coreceptor CXCR4 and have been further engineered to express the HIV-1 co-receptor CCR5 and a Tat-driven LTR-GFP expression cassette. As such, intracellular GFP expression indicates HIV-1 infection [26]. Cultures of 10^5 CEM-GXR cells were seeded into 96-well plates with RPMI-1640 media (Sigma) supplemented with penicillin/streptomycin plus 20% fetal calf serum (R20+), infected with HIV-1 at a multiplicity of infection of 0.03 (to achieve 3% infected cells on Day 2), and incubated at 37°C and 5% CO2. 24 hours later, cells were pelleted at 750 g and resuspended in R20+ containing compound or 0.1% DMSO. […] Cells were then incubated at 37°C and 5% CO2 for an additional 72 h. 5,000 cells from each culture were measured for cell toxicity and GFP expression by flow cytometry. […] Background GFP expression in uninfected cultures was set at 0.05% GFP-positive cells. For each experiment, all data points were obtained in triplicate. All data are reported as the mean ± s.e.m. from at least 3 independent experiments performed with different virus stocks and/or performed on different days. […] EC50 and CC50 values for each compound were calculated from at least four concentrations. Statistical analyses were performed using Student’s unpaired t test, with a p value < 0.05 plus a Bonferroni correction to adjust for multiple comparisons considered significant.

[3] = test system: HCV J4(1b)/JFH1(2a) chimera; test: HCV replication assay in Huh-7.5 cells (NS5A flow cytometry); conditions: Hepatitis C virus, Huh7.5, 72 h
Method: The intergenotypic chimeric HCV used in this study—Bi-Gluc-J4(1b)/JFH1(2a) containing cell culture adaptive mutations in NS2 (T2996C) and NS3 (A4827T)—was previously described and subsequently modified to express Gaussia luciferase in the first cistron. HCV stocks used for infection were generated by electroporation of in vitro transcribed RNA into Huh-7.5.1 cells and pooling of supernatants harvested between 60–96 hr post-electroporation. HCV infectivity was determined by limiting dilution assay as previously described.
HCV cell culture was performed as described previously. Briefly, 4*10^4 Huh-7.5 cells were seeded into 24-well plates and incubated at 37°C and 5% CO2 overnight. Cells were then infected with HCV (multiplicity of infection = 0.3) for 6 hours, followed by removal of HCV and incubation with fresh medium containing compounds at stated concentrations. Cultures were then incubated for 72 hours, with no more than 0.1% DMSO present in culture medium. Cells were then trypsinized, resuspended in culture medium, and stained with the 9E10 alexa-fluor-conjugated antibody to NS5A [27]. Cells were fixed and analyzed for NS5A fluorescence by flow cytometry, and data were analyzed using FlowJo software. […] For each culture, NS5A fluorescence was determined as the percent gated cells relative to percent gated cells in infected cultures plus 0.1% DMSO. All experiments were performed in at least duplicate in at least two independent experiments.
We therefore assessed the effects of ixoratannin A-2, boldine, and BIT-225 on replication of HCV, which also encodes a viral ion channel and protease. Using an established cell culture system, Huh-7.5 cells were infected with an intergenotypic chimera between the J4 (genotype 1b) and JFH1 (genotype 2a) strain of HCV for 6 hours, followed by incubation with fresh medium containing compounds at defined concentrations. Infected cells were then incubated for an additional 72 hours. NS5A expression, a marker of HCV infection, was then detected by flow cytometry.

[4] = read-out: inhibition of HCV replication

In the case of `COc1cc2c(cc1O)C[C@H]1c3c(cc(O)c(OC)c3-2)CCN1C` [boldine], the CC50 at 72 h [1] is reported as greater than 100 µM, the viability [2] is reported as greater than 85% and the “fold less effective at inhibiting HIV-1Δvpu compared to HIV-1NL4-3” value (HIV-1Δvpu) is reported as 1.3 fold. For the same molecule, the EC50 (HIV-1Δvpu) was greater than 100 µM, the EC50 (HIV-1RT) was greater than 100 µM and the “inhibition of HIV-1RT” value (HIV-1RT; concentrations up to 75 or 100 μM, CEM-GXR cells) was less than 50%. For the same molecule, the inhibition at 50 µM [3, 4] was 36%.

With `Oc1cc(O)c2c(c1)OC1(c3ccc(O)c(O)c3)Oc3c4c(c5c(c3C2C1O)OC1(c2ccc(O)c(O)c2)Oc2cc(O)cc(O)c2C5C1O)OC(c1ccc(O)c(O)c1)C(O)C4` (centres unmarked) [ixoratannin A-2] the CC50 at 72 h [1] was 57.5 µM, the viability ([2]; PHA-activated PBMCs) was greater than 85% and the “fold less effective at inhibiting HIV-1Δvpu compared to HIV-1NL4-3” value (HIV-1Δvpu) was 1.4 fold. The EC50 (HIV-1Δvpu) was 52 µM, the EC50 (HIV-1RT) was 33.7 µM and the EC50 ([3]; read-out: EC50 HCV replication) was 23 µM. It also gave an inhibition at 30 µM [3, 4] greater than 50%.
